What was measured:
DU-145 = test: NCI 60 cell line screen, DU-145; format: cell-based; details: read-out: GI50 DU-145, DU-145, Prostate
MDA-MB-231 = test: NCI-DTP 60 cell line screen, MDA-MB-231; format: cell-based; details: read-out: GI50 MDA-MB-231, data provided by NCI-DTP, NA=not active
A498 = test: NCI 60 cell line screen, A498; format: cell-based, human; details: read-out: GI50 A498, A498, Renal
LOX-IMVI = test: NCI 60 cell line screen, LOX-IMVI; format: cell-based, human; details: read-out: GI50 LOX-IMVI, Melanoma
U25-1 = test: NCI 60 cell line screen, U25-1; format: cell-based; details: read-out: GI50 U25-1, U25-1, CNS
NCI-H522 = test: NCI 60 cell line screen, NCI-H522; format: cell-based; details: read-out: GI50 NCI-H522, NCI-H522, Lung
IGROV-1 = test: NCI 60 cell line screen, IGROV-1; format: cell-based, human; details: read-out: GI50 IGROV-1, IGROV-1, Ovarian
HCT-116 = test: NCI-DTP 60 cell line screen, HCT-116; format: cell-based; details: read-out: GI50 HCT-116, data provided by NCI-DTP, NA=not active
NCI 60 cell lines = test: NCI 60 cell line screen, single dose and overall cytotoxicity; format: cell-based
TSU-Pr1 = details: read-out: GI50 TSU-Pr1; human prostate carcinoma cell line TSU-Pr1; cited from earlier work
LnCap = details: read-out: GI50 LnCap; human prostate carcinoma cell line LnCap; cited from earlier work
PC-3 = details: read-out: GI50 PC-3; human prostate carcinoma cell line PC-3; cited from earlier work
HCT-116 cells = test: Clonogenic dose-response analysis; format: cell-based

| Substance | GI50 (DU-145) [µM] | GI50 (MDA-MB-231) [µM] | GI50 (A498) [µM] | GI50 (LOX-IMVI) [µM] | GI50 (U25-1) [µM] | GI50 (NCI-H522) [µM] | GI50 (IGROV-1) [µM] | GI50 (HCT-116) [µM] | Diminished cytotoxicity (summary in the conclusions) (NCI 60 cell lines) | GI50 (TSU-Pr1) [µM] | GI50 (LnCap) [µM] | GI50 (PC-3) [µM] | Concentration achieving the desired therapeutic effect (90% kill of tumor cells) (HCT-116 cells; HCT-116, clonogenic, continuous exposure for seven days) [µM] | Toxicity to HCT-116 cells in the clonogenic assay (HCT-116 cells; two hour and 24 hour dosing schedules) |
| --- | --- | --- | --- | --- | --- | --- | --- | --- | --- | --- | --- | --- | --- | --- |
| (+)-jasplakinolide V [Compound 13] | 0.08 | 0.09 | 0.01 | 0.007 | 0.04 | 0.06 | 0.03 | 0.07 |  |  |  |  |  |  |
| (+)-jasplakinolide Z1 [Compound 9] | 18.8 | 2.5 |  | 0.28 | 0.6 | 0.12 | 1.76 |  |  |  |  |  |  |  |
| (+)-jasplakinolide Z3 [Compound 11] | 3.72 | 0.74 | 0.44 | 0.16 | 0.05 | 0.04 | 0.17 |  |  |  |  |  |  |  |
| jasplakinolide B [Compound 3, reference compound] |  | 0.04 |  |  |  |  |  |  |  |  |  |  |  |  |
| jasplakinolide J [Compound 5] | 0.29 | 0.26 | 0.21 | 0.03 | 0.05 | 0.61 | 0.02 | 0.11 | ≈ 1 uM |  |  |  |  |  |
| jasplakinolide Q [Compound 7] | 0.1 | 0.07 | 0.08 | 0.02 | 0.03 | 0.16 | 0.01 | 0.05 |  |  |  |  |  |  |
| jasplakinolide [Compound 1] |  |  |  |  |  |  |  |  |  | 0.17 | 0.041 | 0.065 | 0.004 | Little toxicity |

Reference: PMC3070360 (Journal of natural products, 2011)
